The values below come from US20230210853A1 (Halia Therapeutics, Inc., priority 2020, published 2023).

The target in the first assay is T1, full-length recombinant human NEK7 (Homo sapiens, UniProt Q8TDX7).
T1 construct: full-length recombinant human NEK7; GST (N); purchased SignalChem N09-10G; host or cells: Sf9 insect cells (baculovirus)
T1 sequence (Q8TDX7 whole entry): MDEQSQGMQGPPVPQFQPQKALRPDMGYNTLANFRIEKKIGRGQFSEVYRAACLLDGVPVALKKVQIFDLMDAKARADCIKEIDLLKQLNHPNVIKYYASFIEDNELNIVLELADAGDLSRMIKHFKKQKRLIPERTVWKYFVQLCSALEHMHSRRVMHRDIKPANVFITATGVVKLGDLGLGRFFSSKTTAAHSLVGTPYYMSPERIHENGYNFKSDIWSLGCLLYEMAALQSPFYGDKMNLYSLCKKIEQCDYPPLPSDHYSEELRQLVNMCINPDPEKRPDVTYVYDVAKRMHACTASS
The assay can be described thus: NEK7 enzymatic assay ([33P]-ATP, casein substrate). Type of assay: biochemical. As to conditions: Table 2a; recombinant human NEK7, casein substrate. As for the experimental part:
In some embodiments, the IC50 of the compounds of Structure (I), (Ia), (Ib), (Ic), (Id), (Ie), or (If) to inhibit NEK7 was determined by the concentration of the compound required to inhibit 50% of the activity of the NEK kinase.
(§1) Casein substrate (from bovine milk, hydrolyzed and partially dephosphorylated mixture of α, β and κ caseins, obtained from Sigma Aldrich, catalogue #C4765, diluted in distilled water to a final concentration of 1 mg/mL) and full-length recombinant human NEK7 (expressed by baculovirus in Sf9 insect cells using a N-terminal GST tag, obtained from SignalChem, catalogue #N09-10G, 0.1 μg/μL) were mixed in assay buffer (20 mM Hepes pH 7.5, 10 mM MgCl2, 1 mM EGTA, 0.02% Brij35, 0.02 mg/ml BSA, 0.1 mM Na3 VO4, 2 mM DTT, 1% DMSO). Compounds of interest (serial 3-fold dilution in DMSO from 10 μM to 0.5 nM) or vehicle (1% DMSO) were dispensed into the kinase reaction mixture by Acoustic technology (Echo550, nanoliter range). After incubation at room temperature for 20 minutes, the kinase reaction was initiated by addition of [^33P]-ATP (specific activity 10 μCi/μl) and the mixture was incubated at room temperature for 2 hours. The reaction was then stopped by spotting the reaction mixture on strips of phosphocellulose P81 paper. Following washing, the radioactivity of the P81 paper was measured and kinase activity data were expressed as the percent remaining kinase activity in test samples compared to vehicle reactions. IC50 values and curve fits were obtained using Prism (GraphPad Software).
as §1, with “μg/L)” for “μg/μL)”, “Na3VO4,” for “Na3 VO4,”, “(Echo550;” for “(Echo550,”
As for `CC(C)(c1cc(NC(=O)Nc2ccc(-c3nn(C4CC4)c4ncnc(N)c34)cc2F)on1)C(F)(F)F` [Ia-22, 1-(4-(4-amino-1-cyclopropyl-1H-pyrazolo[3,4-d]pyrimidin-3-yl)-2-fluorophenyl)-3-(3-(1,1,1-trifluoro-2-methylpropan-2-yl)isoxazol-5-yl)urea], the IC50 fell in the range of 151 to 300 nM.
Consider `CC(C)(C)c1cc(NC(=O)Nc2ccc(-c3nn(C4COC4)c4ncnc(N)c34)cc2F)no1` [Ia-23, 1-(4-(4-amino-1-(oxetan-3-yl)-1H-pyrazolo[3,4-d]pyrimidin-3-yl)-2-fluorophenyl)-3-(5-(tert-butyl)isoxazol-3-yl)urea], for which the IC50 is less than 150 nM.
On the same count and under the same terms, in the case of `CC(C)(C)c1cc(NC(=O)Nc2ccc(-c3nn(C4CCOC4)c4ncnc(N)c34)cc2F)on1` (stereo not drawn) [Ia-24, 1-(4-(4-amino-1-(tetrahydrofuran-3-yl)-1H-pyrazolo[3,4-d]pyrimidin-3-yl)-2-fluorophenyl)-3-(3-(tert-butyl)isoxazol-5-yl)urea] it was less than 150 nM.
For `C=CCn1nc(-c2ccc(NC(=O)Nc3cc(C(C)(C)C)on3)c(F)c2)c2c(N)ncnc21` [Ia-26], the IC50 is 151 to 300 nM.
On the same count and under the same terms, in the case of `CC(C)(F)c1cc(NC(=O)Nc2ccc(-c3nn(C4CC4)c4ncnc(N)c34)cc2F)on1` [Ia-27, 1-(4-(4-amino-1-cyclopropyl-1H-pyrazolo[3,4-d]pyrimidin-3-yl)-2-fluorophenyl)-3-(3-(2-fluoropropan-2-yl)isoxazol-5-yl)urea] it was 501 to 1500 nM.
As to `Cn1nc(-c2ccc(NC(=O)Nc3cc(C(C)(C)C)no3)c(F)c2)c2c(N)ncnc21` [Ia-29, 1-(4-(4-amino-1-methyl-1H-pyrazolo[3,4-d]pyrimidin-3-yl)-2-fluorophenyl)-3-(3-(tert-butyl)isoxazol-5-yl)urea], the IC50 was less than 150 nM.
Still for that read-out and setting: under `CC(C)(C)c1cc(NC(=O)Nc2ccc(-c3nn(C4CC4)c4ccnc(N)c34)cc2)on1` [Ia-31, 1-(4-(4-amino-1-cyclopropyl-1H-pyrazolo[4,3-c]pyridin-3-yl)phenyl)-3-(3-(tert-butyl)isoxazol-5-yl)urea] stands 501 to 1500 nM; under `CC(C)(C)c1cc(NC(=O)Nc2ccc(-c3nn(C4CC4)c4ncnc(N)c34)cc2F)sn1` [Ia-35, 1-(4-(4-amino-1-cyclopropyl-1H-pyrazolo[3,4-d]pyrimidin-3-yl)-2-fluorophenyl)-3-(3-(tert-butyl)isothiazol-5-yl)urea], 501 to 1500 nM; under `CC(C)(C)c1nnc(NC(=O)Nc2ccc(-c3nn(C4CC4)c4ncnc(N)c34)cc2F)o1` [Ia-36, 1-(4-(4-amino-1-cyclopropyl-1H-pyrazolo[3,4-d]pyrimidin-3-yl)-2-fluorophenyl)-3-(5-(tert-butyl)-1,3,4-oxadiazol-2-yl)urea], 501 to 1500 nM.
Same read-out and setting: under `Nc1ncnc2c1c(-c1ccc(NC(=O)Nc3cc(C(F)(F)F)no3)c(F)c1)nn2C1CC1` [Ia-39, 1-(4-(4-amino-1-cyclopropyl-1H-pyrazolo[3,4-d]pyrimidin-3-yl)-2-fluorophenyl)-3-(3-(trifluoromethyl)isoxazol-5-yl)urea] stands 151 to 300 nM; under `CCC(CC)c1cc(NC(=O)Nc2ccc(-c3nn(C4CC4)c4ncnc(N)c34)cc2F)on1` [Ia-40, 1-(4-(4-amino-1-cyclopropyl-1H-pyrazolo[3,4-d]pyrimidin-3-yl)-2-fluorophenyl)-3-(3-(pentan-3-yl)isoxazol-5-yl)urea], 151 to 300 nM; under `CC(C)c1cc(NC(=O)Nc2ccc(-c3nn(C4CC4)c4ncnc(N)c34)cc2F)on1` [Ia-41, 1-(4-(4-amino-1-cyclopropyl-1H-pyrazolo[3,4-d]pyrimidin-3-yl)-2-fluorophenyl)-3-(3-isopropylisoxazo1-5-yl)urea], 301 to 500 nM.
Still for that read-out and setting: under `CCc1cc(NC(=O)Nc2ccc(-c3nn(C4CC4)c4ncnc(N)c34)cc2F)on1` [Ia-42, 1-(4-(4-amino-1-cyclopropyl-1H-pyrazolo[3,4-d]pyrimidin-3-yl)-2-fluorophenyl)-3-(3-ethylisoxazol-5-yl)urea] stands less than 150 nM.
With `CCC(C)c1cc(NC(=O)Nc2ccc(-c3nn(C4CC4)c4ncnc(N)c34)cc2F)on1` (stereo not drawn) [Ia-43, 1-(4-(4-amino-1-cyclopropyl-1H-pyrazolo[3,4-d]pyrimidin-3-yl)-2-fluorophenyl)-3-(3-(sec-butyl)isoxazol-5-yl)urea], the IC50 is 151 to 300 nM.
In the case of `CC1(c2cc(NC(=O)Nc3ccc(-c4nn(C5CC5)c5ncnc(N)c45)cc3F)on2)CCC1` [Ia-44, 1-(4-(4-amino-1-cyclopropyl-1H-pyrazolo[3,4-d]pyrimidin-3-yl)-2-fluorophenyl)-3-(3-(1-methylcyclobutyl)isoxazol-5-yl)urea], the half-inhibitory concentration (IC50) was in the range of 151 to 300 nM.
The same measure, in the same setting: under `Cc1cc(-c2nn(C3CC3)c3ncnc(N)c23)ccc1NC(=O)Nc1cc(C2(C(F)(F)F)CC2)no1` [Ia-48, 1-(4-(4-amino-1-cyclopropyl-1H-pyrazolo[3,4-d]pyrimidin-3-yl)-2-methylphenyl)-3-(3-(1-(trifluoromethyl)cyclopropyl)isoxazol-5-yl)urea] stands 301 to 500 nM; under `Nc1ncnc2c1c(-c1ccc(NC(=O)Nc3cc(C4(C(F)(F)F)CC4)no3)nc1)nn2C1COC1` [Ia-61], 151 to 300 nM.

Still in this assay, the particulars now being: Table 2b; recombinant human NEK7, casein substrate.
Turning to `CC(C)(C)c1cc(NC(=O)Nc2ccc(Oc3ccnc4[nH]ccc34)cc2F)n(-c2ccccc2)n1` [Ib-1, 1-(4-((1H-pyrrolo[2,3-b]pyridin-4-yl)oxy)-2-fluorophenyl)-3-(3-(tert-butyl)-1-phenyl-1H-pyrazol-5-yl)urea], the IC50 was greater than 1500 nM.
The same measure, in the same setting: in the case of `CC(C)(C)c1cc(NC(=O)Nc2ccc(Oc3ccnc4[nH]ccc34)c(C(F)(F)F)c2)n(-c2ccccc2)n1` [Ib-2, 1-(4-((1H-pyrrolo[2,3-]pyridin-4-yl)oxy)-3-(TRIFLUOROMETHYL)phenyl)-3-(3-(tert-butyl)-1-phenyl-1H-pyrazol-5-yl)urea] it was greater than 1500 nM; in that of `CC(C)(C)c1cc(NC(=O)Nc2ccc(Oc3ncnc4[nH]ccc34)cc2F)n(-c2ccccc2)n1` [Ib-3, 1-(4-((7H-pyrrolo[2,3-d]pyrimidin-4-yl)oxy)-2-fluorophenyl)-3-(3-(tert-butyl)-1-phenyl-1H-pyrazol-5-yl)urea], greater than 1500 nM; in that of `CC(C)(C)c1cc(NC(=O)Nc2ccc(Oc3ccnc4[nH]cc(Cl)c34)cc2F)n(-c2ccccc2)n1` [Ib-6, 1-(3-(tert-butyl)-1-phenyl-1H-pyrazol-5-yl)-3-(4-((3-chloro-1H-pyrrolo[2,3-b]pyridin-4-yl)oxy)-2-fluorophenyl)urea], 501 to 1500 nM.
Same read-out and setting: under `Cn1nc(C(C)(C)C)cc1NC(=O)Nc1ccc(Oc2ccnc3[nH]cc(Cl)c23)cc1F` [Ib-7, 1-(3-(tert-butyl)-1-methyl-1H-pyrazol-5-yl)-3-(4-((3-chloro-1H-pyrrolo[2,3-b]pyridin-4-yl)oxy)-2-fluorophenyl)urea] stands 501 to 1500 nM.
The same measure, in the same setting: in the case of `Cc1cc(NC(=O)Nc2ccc(Oc3ccnc4[nH]cc(Cl)c34)cc2F)n(-c2ccc(C#N)cc2)n1` [Ib-9, 1-(4-((3-chloro-1H-pyrrolo[2,3-b]pyridin-4-yl)oxy)-2-fluorophenyl)-3-(1-(4-cyanophenyl)-3-methyl-1H-pyrazol-5-yl)urea] it was greater than 1500 nM; in that of `Cc1cc(NC(=O)Nc2ccc(Oc3ccnc4[nH]cc(Cl)c34)cc2F)n(-c2ccccc2)n1` [Ib-10, 1-(4-((3-chloro-1-pyrrolo[2,3-b]pyridin-4-yl)oxy)-2-fluorophenyl)-3-(3-methyl-1-phenyl-1H-pyrazol-5-yl)urea], greater than 1500 nM.
With `O=C(Nc1ccc(Oc2ccnc3[nH]cc(Cl)c23)cc1F)Nc1cc(C2CC2)nn1-c1ccccc1` [Ib-11, 1-(4-((3-chloro-1H-pyrrolo[2,3-b]pyridin-4-yl)oxy)-2-fluorophenyl)-3-(3-cyclopropyl-1-phenyl-1H-pyrazol-5-yl)urea], the IC50 was 501 to 1500 nM.
On the same count and under the same terms, under `CC(C)(C)c1cc(NC(=O)Nc2ccc(Oc3ncnc4[nH]cc(Cl)c34)cc2F)n(-c2ccccc2)n1` [Ib-13, 1-(3-(tert-butyl)-1-phenyl-1H-pyrazol-5-yl)-3-(4-((5-chloro-7H-pyrrolo[2,3-b]pyrimidin-4-yl)oxy)-2-fluorophenyl)urea] stands greater than 1500 nM; under `CC(C)(C)c1cc(NC(=O)Nc2cc(F)c(Oc3ccnc4[nH]cc(Cl)c34)cc2F)n(-c2ccccc2)n1` [Ib-15], greater than 1500 nM.

For orientation: IC50 means the point on the concentration scale where inhibition reaches its midpoint.
